Test results from patent US11479784B2, “Modulation of seed vigor” (Syngenta Participations AG, priority 2012, dated 2022).

Experiments:
[1] = test system: seeds of A12; experiment: Sensitivity to low temperatures during germination on paper, pretreatment in GA3 solution; assay type: in vivo, Brassica oleracea; details: pretreatment 10 d 10 C. in the light in 1 mM GA3, then non-germinated seeds 5 days at 20° C. in the light
Procedure: (§1) Two replicates of 50 seeds per treatment were incubated at 5° C. or 10° C. in the light as described before for a germination test on paper. Incubation was in water or in a 1 mM solution of GA3. After 10 days seeds that had germinated were removed. The boxes with the remaining non-germinated seeds were then placed at 20° C. in the light. After a further 5 days the number of germinated seeds was counted. As a comparison seeds of both A12 and SL101 were germinated at 20° C. in the light without a pretreatment. Germination percentage of these seeds was counted after 10 days.

[2] = test system: seeds of SL101; experiment: as above; assay type: in vivo, Brassica oleracea
Procedure: as §1

Measured: Percentage of germination of seeds

C=C1C[C@]23C[C@@]1(O)CC[C@H]2[C@@]12C=C[C@H](O)[C@@](C)(C(=O)O1)[C@H]2[C@@H]3C(=O)O [GA3]
100%: [1] | [2]; pretreatment 10 d 5 C. in the light in 1 mM GA3, then non-germinated seeds 5 days at 20° C. in the light | [2]; pretreatment 10 d 10 C. in the light in 1 mM GA3, then non-germinated seeds 5 days at 20° C. in the light
